Test results as given in the NIST ThermoML archive (doi:10.1021/acs.jced.8b00975).

Test: xn = mol fraction of the nth substance listed
Conditions: Liquid, Vibrating tube method

C=C(C)C(=O)OCCN(C)C [2-(dimethylamino)ethyl methylpropenoate] + CCCCCO
mass density [kg/m3]
Conditions	100 kPa	5000 kPa	10000 kPa	15000 kPa	20000 kPa	25000 kPa	30000 kPa	35000 kPa
293.15 K, x1 = 0.0299	821.4	824.97	828.31	831.49	834.52	837.46	840.35	843.21
293.15 K, x1 = 0.0601	827.36	830.88	834.21	837.36	840.4	843.36	846.28	849.21
293.15 K, x1 = 0.1006	834.83	838.39	841.73	844.91	847.96	850.92	853.82	856.7
293.15 K, x1 = 0.2011	851.81	855.36	858.7	861.88	864.94	867.91	870.84	873.77
293.15 K, x1 = 0.3004	866.6	870.17	873.54	876.75	879.84	882.84	885.78	888.7
293.15 K, x1 = 0.402	879.66	883.27	886.67	889.9	893.01	896.03	899.02	902
293.15 K, x1 = 0.4518	885.55	889.17	892.6	895.88	899.03	902.08	905.07	908.03
293.15 K, x1 = 0.5004	890.97	894.63	898.09	901.38	904.54	907.61	910.63	913.62
293.15 K, x1 = 0.5486	896.13	899.78	903.24	906.53	909.71	912.79	915.83	918.85
293.15 K, x1 = 0.601	901.42	905.08	908.55	911.86	915.05	918.14	921.18	924.2
293.15 K, x1 = 0.7021	910.74	914.43	917.91	921.22	924.41	927.53	930.63	933.76
293.15 K, x1 = 0.8019	918.94	922.6	926.1	929.46	932.72	935.91	939.06	942.19
293.15 K, x1 = 0.9008	926.27	929.96	933.48	936.87	940.15	943.35	946.5	949.63
293.15 K, x1 = 0.9306	928.32	932.04	935.56	938.93	942.19	945.38	948.54	951.72
293.15 K, x1 = 0.9645	930.63	934.34	937.87	941.25	944.51	947.7	950.84	953.97
303.15 K, x1 = 0.0307	814.24	818.14	821.74	825.07	828.2	831.19	834.07	836.92
303.15 K, x1 = 0.0604	819.89	823.73	827.29	830.63	833.79	836.81	839.72	842.58
303.15 K, x1 = 0.1009	827.11	830.9	834.46	837.81	841.01	844.07	847.03	849.93
303.15 K, x1 = 0.2025	843.87	847.62	851.18	854.56	857.79	860.91	863.93	866.88
303.15 K, x1 = 0.3	857.94	861.71	865.28	868.68	871.95	875.13	878.24	881.32
303.15 K, x1 = 0.3999	870.67	874.45	878.06	881.52	884.85	888.08	891.24	894.35
303.15 K, x1 = 0.4506	876.6	880.36	883.98	887.47	890.84	894.11	897.3	900.41
303.15 K, x1 = 0.5037	882.4	886.19	889.83	893.35	896.76	900.07	903.29	906.44
303.15 K, x1 = 0.5495	887.14	890.94	894.58	898.1	901.5	904.82	908.07	911.28
303.15 K, x1 = 0.6012	892.24	896.07	899.73	903.25	906.65	909.98	913.25	916.5
303.15 K, x1 = 0.7014	901.28	905.16	908.86	912.4	915.83	919.2	922.54	925.89
303.15 K, x1 = 0.8023	909.34	913.19	916.92	920.53	924.05	927.5	930.88	934.23
303.15 K, x1 = 0.9025	916.57	920.44	924.19	927.82	931.37	934.86	938.3	941.71
303.15 K, x1 = 0.9307	918.44	922.34	926.12	929.8	933.38	936.89	940.33	943.73
303.15 K, x1 = 0.9625	920.67	924.56	928.32	931.98	935.55	939.05	942.5	945.92
313.15 K, x1 = 0.0305	806.61	810.57	814.26	817.73	821.04	824.24	827.39	830.53
313.15 K, x1 = 0.0602	812.04	816	819.71	823.21	826.55	829.77	832.92	836.03
313.15 K, x1 = 0.1004	819.08	823.09	826.82	830.32	833.66	836.89	840.06	843.25
313.15 K, x1 = 0.2011	835.38	839.35	843.09	846.64	850.04	853.32	856.53	859.71
313.15 K, x1 = 0.2999	849.45	853.38	857.13	860.71	864.15	867.48	870.73	873.91
313.15 K, x1 = 0.4001	862.05	866.03	869.81	873.43	876.91	880.27	883.53	886.72
313.15 K, x1 = 0.4514	867.85	871.88	875.71	879.36	882.87	886.24	889.51	892.71
313.15 K, x1 = 0.498	872.93	876.96	880.8	884.47	888	891.4	894.7	897.93
313.15 K, x1 = 0.5495	878.17	882.25	886.12	889.81	893.35	896.76	900.07	903.31
313.15 K, x1 = 0.5984	882.9	887.01	890.9	894.6	898.15	901.58	904.91	908.18
313.15 K, x1 = 0.7004	892.03	896.09	900.01	903.79	907.43	910.93	914.29	917.51
313.15 K, x1 = 0.8001	900.15	904.24	908.18	911.97	915.62	919.14	922.52	925.76
313.15 K, x1 = 0.8995	907.42	911.49	915.45	919.28	922.99	926.57	930.03	933.36
313.15 K, x1 = 0.9328	909.62	913.75	917.76	921.63	925.35	928.93	932.36	935.63
313.15 K, x1 = 0.9616	911.53	915.62	919.61	923.5	927.26	930.88	934.33	937.6
